Results taken from patent US9861610B2, “Process for selective extraction of bioactive and bioavailable cinnamon polyphenols and procyanidin oligomers and a stable composition thereof” (AKAY FLAVOURS & AROMATICS PVT LTD., priority 2011, dated 2018).

Tested on: streptozotocin induced diabetic rats
Assay: Serum insulin levels (chemiluminescence method, human specific kit)
Details: 30 days treatment

Compound: COc1ccc(Cl)cc1C(=O)NCCc1ccc(S(=O)(=O)NC(=O)NC2CCCCC2)cc1 [Glibenclamide]
- insulin levels: 0.4 μIU/ml
